According to patent publication US12497403B2, “Factor XIa inhibitors” (Merck Sharp & Dohme LLC, priority 2021, dated 2025):

Tests used:
human tissue kallikrein = molecular target: T1, human tissue kallikrein (Homo sapiens, UniProt P06870); experiment: Inhibition of tissue kallikrein enzymatic activity; type: biochemical; conditions: human tissue kallikrein 5 nM, N-acetyl-KPR-AFC substrate, 25° C., pH 7.4; read-out: tKal IC50
T1 construct: purchased Ray Biotech or Evotec 228-10996
Experimental: Compounds were assayed with human tissue kallikrein (Ray Biotech, Cat # 228-10996 or Evotec, final concentration 5 nM) in 50 mM HEPES, 150 mM NaCl, 5 mM CaCl2, 0.1% PEG-8000, pH 7.4 at 25° C. in a Corning 3575 non-binding surface microplate. Compounds were tested in 10-point dose titrations starting at 166.67 uM with a 3-fold dilution series. Tissue kallikrein enzymatic activity was determined by measuring the rate of cleavage of N-acetyl-KPR-AFC substrate (Sigma, Cat # C6608, final concentration 100 uM) by continuously monitoring the fluorescence at 400/505 nm using a Tecan Safire plate-reader. The initial reaction rates (0) to 20 minutes) were used to determine percent inhibition. The % Inhibition for each data point was recalculated from the RFU/min data and analyzed using the log(inhibitor) vs. response four parameters equation with the GraphPad Prism software.

human Factor XIa = human Factor XIa (Homo sapiens, UniProt P03951); experiment: Factor XIa assay; type: biochemical; conditions: human Factor XIa 0.04 nM, GPR-AFC substrate, 25° C., pH 7.4; read-out: FXIa IC50
Experimental: The effectiveness of a compound of the present invention as an inhibitor of Coagulation Factor XIa can be determined using a relevant purified serine protease, and an appropriate synthetic substrate. The rate of hydrolysis of the chromogenic or fluorogenic substrate by the relevant serine protease was measured both in the absence and presence of compounds of the present invention. Assays were conducted at room temperature or at 37° C. […] A decrease in the rate of fluorescence change in the presence of inhibitor is indicative of enzyme inhibition. Such methods are known to one skilled in the art. The results of this assay are expressed as the half-maximal inhibitory concentrations (IC50), or the inhibitory constant, Ki.
Compounds were pre-incubated for 30 minutes at 25° C. with human (0.04 nM) Factor XIa in 50 mM HEPES buffer with 150 mM sodium chloride, 5 mM calcium chloride, 0.1% PEG 8000, pH 7.4. Factor XIa enzymatic activity was determined by addition of the substrate glycine-proline-arginine-7-amido-4-trifluoromethylcoumarin (GPR-AFC) and measurement of the fluorescence at 400/505 nm after a 60 minute incubation at 25° C. The % inhibition for each data point was calculated from the data and analyzed using the log (inhibitor) vs. response four parameters equation to determine the half-maximal inhibitory concentrations (IC50). The IC50 were converted to equilibrium inhibitory constants (Ki) using the Cheng-Prusoff equation.

[1] = Dog pharmacokinetics (screening IV/PO or cassette IV); type: in vivo; conditions: male; dog plasma, mean residence time
Experimental: Plasma pharmacokinetic parameters for clearance, volume of distribution, half-life, mean residence time (MRT) and oral bioavailability were determined in dogs from oral administration and IV administration studies. 4 male dogs, typically weighing 8-12 kilograms, were fasted overnight prior to dosing. Compounds were prepared for oral and IV dosing by addition to a vehicle, depending on the dose used. For a typical preparation, 1 mg per mL (IV) or 1.5 mg per mL (oral) of test compound was added to vehicle comprised of 20% dimethyl sulfoxide (DMSO), 60% polyethylene glycol 400 (PEG400) and 20% water. IV formulation was administered to 2 dogs via the saphenous or cephalic vein, and oral dosing was administered to 2 dogs via oral gavage. Blood was collected by the cephalic or jugular vein, typically at predose, 2 min, 8 min, 15 min, 30 min, and 1, 2, 4, 6, 8 and 24 hr postdose for IV, and at predose, 15 min, 30 min, and 1, 2, 4, 6, 8, and 24 hr for oral dosing. Samples were collected in K2EDTA tubes, stored on ice. and centrifuged. Plasma was transferred to a micro titer plate and stored at −70° C.until analysis. Plasma samples were extracted using protein precipitation and analyzed by liquid chromatography separation followed by mass spec detection (LCMS/MS), using a standard curve for each compound. Plasma pharmacokinetic parameters were calculated for IV and oral dosing data by non-compartmental methods. Oral bioavailability was determined as the ratio of the dose-normalized plasma area under the curve (AUC) following oral dosing vs. IV dosing.
Plasma pharmacokinetic parameters for clearance, volume of distribution, half-life, and mean residence time (MRT) were determined in dogs from IV cassette administration studies. 2 male dogs, typically weighing 8-12 kilograms, were fasted overnight prior to dosing. Compounds were prepared for IV dosing by addition to a vehicle, depending on the dose used. For a typical preparation, 1 mg per mL (IV) of up to 5 test compounds were added to vehicle comprised of 20% dimethyl sulfoxide (DMSO), 60% polyethylene glycol 400 (PEG400) and 20% water. IV formulation was administered to 2 dogs via the saphenous or cephalic vein. Blood was collected by the cephalic or jugular vein, typically at predose. 2, 8, 15, 30 min, 1, 2, 4, 6, 8 and 24 hr postdose. Samples were collected in K2EDTA tubes, stored on ice, and centrifuged. Plasma was transferred to a micro titer plate and stored at −70° C. until analysis. Plasma samples were extracted using protein precipitation and analyzed by liquid chromatography separation followed by mass spec detection (LCMS/MS), using a standard curve for each compound. Plasma pharmacokinetic parameters were calculated by non-compartmental methods.

[2] = molecular target: T2, Human Norepinephrine Transporter (NET) (Homo sapiens, UniProt P23975); experiment: Norepinephrine Transporter functional antagonist uptake assay; type: cell-based; conditions: [3H]Norepinephrine uptake, human recombinant NET in MDCK cells
T2 construct: host or cells: MDCK cells
Experimental: Human Norepinephrine Transporter (NET) Functional Antagonist Uptake Assay was carried out at Panlabs Cerep (assay#302100). Human recombinant norepinephrine transporter expressed in MDCK cells were plated overnight. Test compound and/or vehicle was pre-incubated with cells (2×10E5/ml) in modified Tris-HEPES buffer pH 7.1 for 20 minutes at 25° C. and 25 nM [3H]Norepinephrine was then added for an additional 15 minute incubation period. A lysate was obtained from solubilized cells and counted to determine [3H]Norepinephrine uptake. Reduction of [3H]Norepinephrine uptake by 50 percent or more (≥50%) relative to 10 μM desipramine indicates significant inhibitory activity. Compounds are screened at 10, 3, 1, 0.3, 0.1, 0.03, 0.01 and 0.003 μM. These same concentrations are concurrently applied to a separate group of untreated cells and evaluated for possible compound-induced cytotoxicity only if significant inhibition of uptake is observed. IC50 values were determined by a non-linear, least squares regression analysis using MathIQTM (IDBusiness Solutions Ltd., UK).

T1 sequence (P06870 25-262): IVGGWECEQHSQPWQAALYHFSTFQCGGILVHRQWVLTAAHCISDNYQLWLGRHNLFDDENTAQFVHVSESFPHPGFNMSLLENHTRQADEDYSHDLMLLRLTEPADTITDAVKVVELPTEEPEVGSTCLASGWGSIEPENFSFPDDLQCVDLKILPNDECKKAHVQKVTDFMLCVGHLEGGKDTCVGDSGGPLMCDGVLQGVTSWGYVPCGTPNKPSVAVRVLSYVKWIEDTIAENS
Sequence of human Factor XIa (P03951 388-625 limits assumed): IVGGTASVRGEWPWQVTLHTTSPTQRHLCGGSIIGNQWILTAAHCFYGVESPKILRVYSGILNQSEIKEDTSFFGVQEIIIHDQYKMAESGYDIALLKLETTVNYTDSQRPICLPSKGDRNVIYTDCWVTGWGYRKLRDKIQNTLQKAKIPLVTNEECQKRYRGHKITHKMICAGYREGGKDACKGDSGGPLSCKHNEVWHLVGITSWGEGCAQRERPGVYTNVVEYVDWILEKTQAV
Sequence of human Factor XIa (P03951 19-387 partner limits assumed): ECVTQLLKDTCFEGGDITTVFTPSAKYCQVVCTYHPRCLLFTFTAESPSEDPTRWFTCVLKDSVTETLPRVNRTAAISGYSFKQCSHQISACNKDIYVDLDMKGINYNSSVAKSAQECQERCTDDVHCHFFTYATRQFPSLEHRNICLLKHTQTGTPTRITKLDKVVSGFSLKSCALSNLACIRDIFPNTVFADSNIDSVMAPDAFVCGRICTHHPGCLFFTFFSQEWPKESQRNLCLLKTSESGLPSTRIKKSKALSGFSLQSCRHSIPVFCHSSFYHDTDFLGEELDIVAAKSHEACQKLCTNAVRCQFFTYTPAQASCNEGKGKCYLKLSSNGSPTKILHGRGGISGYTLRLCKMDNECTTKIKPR
T2 sequence (P23975 whole entry): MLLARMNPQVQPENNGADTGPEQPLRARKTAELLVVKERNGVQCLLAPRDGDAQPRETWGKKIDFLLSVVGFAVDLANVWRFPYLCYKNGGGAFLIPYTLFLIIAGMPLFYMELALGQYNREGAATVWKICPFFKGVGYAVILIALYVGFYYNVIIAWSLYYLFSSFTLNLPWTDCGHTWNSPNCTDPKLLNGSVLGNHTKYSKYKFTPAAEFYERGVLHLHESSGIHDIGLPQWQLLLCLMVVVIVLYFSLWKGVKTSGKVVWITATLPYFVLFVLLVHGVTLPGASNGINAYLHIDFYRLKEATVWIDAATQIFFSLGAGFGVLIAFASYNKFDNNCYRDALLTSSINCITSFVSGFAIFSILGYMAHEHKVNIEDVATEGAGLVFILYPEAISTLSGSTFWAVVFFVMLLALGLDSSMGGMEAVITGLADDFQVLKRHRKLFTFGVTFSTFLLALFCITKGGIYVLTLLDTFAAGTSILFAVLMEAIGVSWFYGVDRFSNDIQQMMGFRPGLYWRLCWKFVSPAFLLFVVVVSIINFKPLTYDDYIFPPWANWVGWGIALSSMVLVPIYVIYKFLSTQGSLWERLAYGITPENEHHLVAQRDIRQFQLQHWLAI

CCOC(=O)c1[nH]c2nc1-c1ccc(NC(=O)OC)cc1NC(=O)C(C)(C)CCC[C@@H]2c1ccc(-c2cc(F)ccc2-n2cc(C(F)(F)F)cn2)c[n+]1[O-] [Example 1, (R,Z)-2-(1^5-(ethoxycarbonyl)-2^4-((methoxycarbonyl)amino)-5,5-dimethyl-4-oxo-1^1H-3-aza-1(4,2)-imidazola-2(1,2)-benzenacyclononaphane-9-yl)-5-(5-fluoro-2-(4-(trifluoromethyl)-1H-pyrazol-1-yl)phenyl)pyridine 1-oxide]
IC50 (human tissue kallikrein): > 167000 nM
IC50 (human Factor XIa): 0.88 nM
MRT [1]: 12 h
IC50 [2]: > 10000 nM

CCOC(=O)c1[nH]c2nc1-c1ccc(NC(=O)OC)cc1NC(=O)C(C)(C)CCC[C@@H]2c1ccc(-c2cc(Cl)ccc2-n2cc(C(F)(F)F)cn2)c[n+]1[O-] [Example 2, (R,Z)-5-(5-chloro-2-(4-(trifluoromethyl)-1H-pyrazol-1-yl)phenyl)-2-(1^5-(ethoxycarbonyl)-2^4-((methoxycarbonyl)amino)-5,5-dimethyl-4-oxo-1^1H-3-aza-1(4,2)-imidazola-2(1,2)-benzenacyclononaphane-9-yl)pyridine 1-oxide]
IC50 (human tissue kallikrein): > 167000 nM
IC50 (human Factor XIa): 0.97 nM
MRT [1]: 15 h
IC50 [2]: > 10000 nM

CCOC(=O)c1[nH]c2nc1-c1ccc(NC(=O)OC)cc1NC(=O)C(C)(C)CCC[C@@H]2c1ccc(-c2cc(F)ccc2OC(F)F)c[n+]1[O-] [Example 3, (R,Z)-5-(2-(difluoromethoxy)-5-fluorophenyl)-2-(1^5-(ethoxycarbonyl)-2^4-((methoxycarbonyl)amino)-5,5-dimethyl-4-oxo-1^1H-3-aza-1(4,2)-imidazola-2(1,2)-benzenacyclononaphane-9-yl)pyridine 1-oxide]
IC50 (human tissue kallikrein): 886 nM
IC50 (human Factor XIa): 0.26 nM
MRT [1]: 6.1 h
IC50 [2]: > 10000 nM

CCOC(=O)c1[nH]c2nc1-c1ccc(NC(=O)OC)cc1NC(=O)C(C)(C)CCC[C@@H]2c1ccc(-c2cc(Cl)cnc2OC(F)F)c[n+]1[O-] [Example 4, (R,Z)-5′-chloro-2′-(difluoromethoxy)-6-(1^5-(ethoxycarbonyl)-2^4-((methoxycarbonyl)amino)-5,5-dimethyl-4-oxo-1^1H-3-aza-1(4,2)-imidazola-2(1,2)-benzenacyclononaphane-9-yl)-[3,3′-bipyridine] 1-oxide]
IC50 (human tissue kallikrein): > 167000 nM
IC50 (human Factor XIa): 1.3 nM
MRT [1]: 9.9 h
IC50 [2]: > 10000 nM

CCOC(=O)c1[nH]c2nc1-c1ccc(NC(=O)OC)cc1NC(=O)C(C)(C)CCC[C@@H]2c1ccc(-c2cccc(Cl)c2F)c[n+]1[O-] [Example 5, (R,Z)-5-(3-chloro-2-fluorophenyl)-2-(1^5-(ethoxycarbonyl)-2^4-((methoxycarbonyl)amino)-5,5-dimethyl-4-oxo-1^1H-3-aza-1(4,2)-imidazola-2(1,2)-benzenacyclononaphane-9-yl)pyridine 1-oxide]
IC50 (human tissue kallikrein): 15000 nM
IC50 (human Factor XIa): 0.19 nM
MRT [1]: 7.2 h
IC50 [2]: > 10000 nM

COC(=O)Nc1ccc2c(c1)NC(=O)C(C)(C)CCC[C@H](c1ccc(-c3cc(F)ccc3-n3cc(C(F)(F)F)cn3)c[n+]1[O-])c1nc-2c(C(=O)OC)[nH]1 [Example 6, (R,Z)-5-(5-fluoro-2-(4-(trifluoromethyl)-1H-pyrazol-1-yl)phenyl)-2-(1^5-(methoxycarbonyl)-2^4-((methoxycarbonyl)amino)-5,5-dimethyl-4-oxo-1^1H-3-aza-1(4,2)-imidazola-2(1,2)-benzenacyclononaphane-9-yl)pyridine 1-oxide]
IC50 (human tissue kallikrein): > 167000 nM
IC50 (human Factor XIa): 0.81 nM
MRT [1]: 8.9 h
IC50 [2]: > 10000 nM
